{
  "source": "patent US12496327B2",
  "about": "“Methods and compositions for restoring STMN2 levels” (President and Fellows of Harvard College, priority 2019, dated 2025)",
  "key": {"hMNs": {"system": "hMNs", "test": "Neurite outgrowth assay (Sholl analysis) of hMNs", "type": "cell-based, human", "settings": "STMN2+/+ hMNs, 10 μM", "method": "Given the reported role of STMN2 in regulating axonal growth by promoting the dynamic instability of microtubules (77), phenotypic assays were carried out characterizing neurite outgrowth in the STMN2−/− hMNs. After 7 days in culture, sorted hMNs were fixed and stained for β-III-tubulin to label the neuronal processes (FIG. 4E).\nIndividual Tuj1-positive neurons used for Sholl analyses were randomly selected and imaged using a Nikon Eclipse TE300 with a 40× objective. The neurites were traced using the ImageJ (NIH) plugin NeuronJ (78), and Sholl analysis was performed using the Sholl tool of Fiji (96), quantifying the number of intersections at 10-μm intervals from the cell body. Statistical analysis was performed by comparing the number of intersections of KO clones with the parental WT line for each 10-μm interval using Prism 6 (Graph Pad, La Jolla, CA, USA). Significance was assessed by a standard Student's t-test, with a p value of p<0.05 considered as significant."}, "proteasome": {"system": "proteasome", "test": "Proteasome activity assay (luciferase substrate) in neurons treated with MG-132", "type": "cell-based, human", "text": "(§1) N=6 separate wells of neurons. (Unpaired t test, P value <0.05). […] N=triplicate wells. Cells are viable after 1 day of treatment at all the concentrations tested and lower concentrations are tolerated for more extended periods of time. […] N=4 separate wells of neurons (Unpaired t test, P value <0.05).\n(§2) A previous study established that proteasome inhibition in hMNs could trigger accumulation of mutant SOD-1 (31). It was, therefore, examined whether MG-132-mediated proteasome inhibition affected TDP-43 localization in hMNs as a potential model of sporadic ALS. First, the range and timing of small molecule treatment that could inhibit the proteasome without inducing overt cellular toxicity was established (FIGS. 14A-14D). […] Then a pulse-chase experiment was performed to determine the consequences of proteasome inhibition on TDP-43 localization (FIG. 5A). […] Thus, proteasome inhibition in hMNs induces a TDP-43 mislocalization that is reversible."}, "motor neurons": {"system": "motor neurons", "test": "Cell Titer Glo neuronal survival assay", "type": "cell-based, human", "text": "as §1, §2"}, "TDP-43 [1]": {"system": "TDP-43", "test": "TDP-43 localization by immunostaining, Pearson's correlation with DAPI", "type": "cell-based, human", "method": "as §2\nFor immunofluorescence, cells were fixed with ice-cold 4% PFA for 15 minutes at 4° C., permeabilized with 0.2% Triton-X in 1×PBS for 45 minutes and blocked with 10% donkey serum in 1×PBS-T (0.1% Tween-20) for 1 hour. Cells were then incubated overnight at 4° C. with primary antibody (diluted in blocking solution). At least 4 washes (5 min incubation each) with 1×PBS-T were carried out, before incubating the cells with secondary antibodies for 1 hour at room temperature (diluted in blocking solution). Nuclei were stained with DAPI. […] Micrographs were analyzed using FIJI software to determine the correlation coefficient."}, "TDP-43 [2]": {"system": "TDP-43", "test": "Immunoblot of TDP-43 in detergent-soluble (RIPA) and detergent-insoluble (UREA) fractions", "type": "cell-based, human", "method": "To determine what happened to TDP-43 after proteasome inhibition, TDP-43 levels were examined by immunoblot analysis in both the detergent-soluble and detergent-insoluble fractions. […] Finally, STMN2 levels in neurons treated with either a short-term high dose or a long-term low dose of MG-132 were probed.\nFor analysis of TDP-43 and STMN2 protein expression levels, d10 MNs were lysed in RIPA buffer (150 mM Sodium Chloride; 1% Triton X-100; 0.5% sodium deoxycholate; 0.1% SDS; 50 mM Tris pH 8.0) containing protease and phosphatase inhibitors (Roche) for 20 min on ice, and centrifuged at high speed. 200 μL of RIPA buffer per well of 24-well culture were routinely used, which yielded ˜20 μg of total protein as determined by BCA (Thermo Scientific). After two washes with RIPA buffer, insoluble pellets were resuspended in 200 μl of UREA buffer (Bio-Rad). For immunoblot assays 2-3 μg of total protein were separated by SDS-PAGE (BioRad), transferred to PDVF membranes (BioRad) and probed with antibodies against TDP-43 (1:1000, ProteinTech Group), GAPDH (1:1000, Millipore) and STMN2 (1:3000, Novus). Insoluble pellets were loaded based on protein concentration of correspondent RIPA-soluble counterparts. […] GAPDH levels were used to normalized each sample, and LiCor software was used to quantitate protein band signal."}, "STMN2 transcript": {"system": "STMN2 transcript", "test": "qRT-PCR analysis of STMN2 expression in hMNs", "type": "cell-based, human", "settings": "either a short-term high dose or a long-term low dose, both cases", "method": "Total RNA was isolated from d10 MNs for RNA-Seq experiments and validation assays using Trizol LS (Invitrogen) according to manufacturer's instructions. 500 μL were added per well of the 24-well cultures. A total of 300-1000 ng of total RNA was used to synthesize cDNA by reverse transcription according to the iSCRIPT kit (Bio-rad). Quantitative RT-PCR (qRT-PCR) was then performed using SYBR green (Bio-Rad) and the iCycler system (Bio-rad). Quantitative levels for all genes assayed were normalized using GAPDH expression. […] All primer sequences are available upon request. For next-generation RNA sequencing (RNA-Seq), at least two technical replicas per siRNA sample or AAVS1-TDP43 genotype were included in the analyses. After RNA extraction, samples with RNA integrity numbers (RIN) above 7.5, determined by a bioAnalyzer, were used for library preparation. In brief, RNA sequencing libraries were generated from ˜250 ng of total RNA using the illumina TruSeq RNA kit v2, according to the manufacturer's directions. Libraries were sequenced at the Harvard Bauer Core Sequencing facility on a HiSeq 2000 platform. All FASTQ files were analyzed using the bcbioRNASeq workflow and toolchain (90). The FASTQ files were aligned to the GRCh37/hg19 reference genome. Differential expression testing was performed using DESeq2 suite of bioinformatics tools (38). […]"}, "STMN2 cryptic exon": {"system": "STMN2 cryptic exon", "test": "RT-PCR detection of STMN2 cryptic exon in hMNs", "type": "cell-based, human", "settings": "hMNs treated with proteasome inhibitor", "text": "TDP-43 plays an important role in the nucleus regulating RNA splicing, and recent studies highlight its ability to suppress non-conserved or cryptic exons to maintain intron integrity (80). When cryptic exons are included in RNA transcripts, in many cases, their inclusion can affect normal levels of the gene product by disrupting its translation or by promoting nonsense-mediated decay (80). […] The sequencing data was examined for evidence of cryptic exons in genes observed to be reproducibly regulated by TDP-43 in human cancer cells (81). […] To accomplish this goal, an RT-PCR assay was developed to detect transcripts containing the cryptic exon (FIG. 5F). […] Total RNA was isolated from neurons using RNeasy Mini Kit (Qiagen) according to manufacturer's instructions. A total of 300-1000 ng of total RNA was used to synthesize cDNA by reverse transcription according to the iSCRIPT kit (Bio-rad). RT-PCR was then performed using one cryptic exon-specific primer and then analyzed using the Agilent 2200 Tapestation."}, "STMN2 mRNA": {"system": "STMN2 mRNA", "test": "STMN2 mRNA expression in HUES3, IG2 and CN7 cell lines stressed with MG132", "type": "cell-based, human", "method": "Three cell lines, HUES3, IG2 (Stmn2 KO), and CN7 (cryptic exon deletion) were treated with normal media or media+1 uM MG132 for 24 hours to stress the cells. In HUES3 cells, the stressed condition had 52% STMN2 mRNA expression compared to the unstressed condition. In IG2 (Stmn2 KO) condition, unstressed cells had 13% expression, and when stressed, expression increased to 42%. […] It was shown that if several exons are knocked out the expression goes down, but if the TDP-43 binding site is removed, expression goes way up."}, "STMN2 transcripts": {"system": "STMN2 transcripts", "test": "ASO effect on STMN2 cryptic exon and full length transcripts during TDP-43 depletion", "type": "cell-based"}},
  "note": "Where a SMILES comes first, the peptide text is derived from it. The star is where a group is joined. Cbz = O=C(OCc1ccccc1)*",
  "data": [
    {"molecule": "C[C@@H](N)[C@H]1CC[C@H](C(=O)Nc2ccncc2)CC1", "note": "[Y-27632]", "values": [
      {"measurement": "neurite outgrowth", "setting": "hMNs", "result": "enhancing the outgrowth"}
    ]},
    {"molecule": "CC(C)C[C@@H](C=O)NC(=O)[C@H](CC(C)C)NC(=O)[C@H](CC(C)C)NC(=O)OCc1ccccc1", "note": "[MG-132] (Cbz-Leu-Leu-Leu-aldehyde)", "values": [
      {"measurement": "proteasome activity", "setting": "proteasome; neurons treated with MG-132, N=4 wells (FIG. 14E)", "result": "significantly decreased proteasome activity"},
      {"measurement": "proteasome activity", "setting": "proteasome; overnight 1 μM treatment of hMNs", "result": "less than 10 % of normal activity"},
      {"measurement": "cell viability (neuronal survival)", "setting": "motor neurons; 1 day of treatment, all concentrations tested (FIG. 14D)", "result": "viable"},
      {"measurement": "tolerance of neurons to treatment without overt cellular toxicity", "setting": "motor neurons; overnight 1 μM treatment", "result": "could withstand"},
      {"measurement": "TDP-43 staining following washout", "setting": "TDP-43 [1]; 4 days after washout of 24 hour 1 μM pulse", "result": "indistinguishable to unchallenged neurons"},
      {"measurement": "TDP-43 staining in the nucleus", "setting": "TDP-43 [1]; after 24 hour 1 μM pulse", "result": "greatly diminished"},
      {"measurement": "TDP-43 levels in soluble lysates", "setting": "TDP-43 [2]; control neurons, low dose, detergent-soluble (RIPA) fraction", "result": "significantly decreased"},
      {"measurement": "TDP-43 in UREA (insoluble) fraction", "setting": "TDP-43 [2]; detergent-insoluble fraction", "result": "become insoluble"},
      {"measurement": "STMN2 mRNA levels", "setting": "STMN2 transcript", "result": "significant decreases"},
      {"measurement": "transcripts containing the STMN2 cryptic exon (PCR product)", "setting": "STMN2 cryptic exon", "result": "presence of transcripts containing the STMN2 cryptic exon"},
      {"measurement": "STMN2 mRNA expression", "setting": "STMN2 mRNA; CN7 (Cryptic Exon Deletion) cells, 1 uM for 24 hours (stressed)", "result": 473, "unit": "%"},
      {"measurement": "STMN2 mRNA expression", "setting": "STMN2 mRNA; HUES3 cells, 1 uM for 24 hours, compared to the unstressed condition", "result": 52, "unit": "%"},
      {"measurement": "STMN2 mRNA expression", "setting": "STMN2 mRNA; IG2 (Stmn2 KO) cells, 1 uM for 24 hours (stressed)", "result": 42, "unit": "%"}
    ]},
    {"molecule": "TCTTCAGTATTGCTATTCAT (2'-MOE nucleotides, further chemistry not given here) [ASO (SEQ ID NO: 11), antisense oligonucleotide targeting the abortive or altered STMN2 RNA]", "values": [
      {"measurement": "ability to decrease the abundance of cryptic exon containing transcripts", "setting": "STMN2 transcripts; 2.5 μM (FIG. 69A)", "result": "effectiveness"},
      {"measurement": "ability to increase the abundance of full length STMN2 transcripts", "setting": "STMN2 transcripts; 2.5 μM, during TDP-43 depletion (FIG. 69B)", "result": "effectiveness"}
    ]},
    {"molecule": "CC(C)C[C@H](NC(=O)[C@H](Cc1ccccc1)NC(=O)c1cnccn1)B(O)O", "note": "[Bortezomib]", "values": [
      {"measurement": "transcripts containing the STMN2 cryptic exon (PCR product)", "setting": "STMN2 cryptic exon", "result": "presence of transcripts containing the STMN2 cryptic exon"}
    ]}
  ]
}
